# Target: Trx-6×His-BCL6 (human BCL6 BTB domain covering amino-acid sequence 5-129) (Homo sapiens (Human), UniProt P41182)
# Assay: HTRF in vitro assay (BCL6 / BCOR-AF633 peptide)
# Type: binding
# Conditions: further generated data; 1 nM Trx-6×His-BCL6, 300 nM BCOR-AF633 peptide, 0.5 nM anti-6×His-Terbium cryptate
# Procedure: The % inhibition at each concentration was calculated by normalising FRET ratio to the appropriate high (DMSO with all reagents) and low (DMSO without BCL6) controls.
row,SMILES,HTRF pIC50
1,Cn1c(=O)n(CCC(C)(C)O)c2cc(Nc3nc(-n4ccc(C(F)(F)F)n4)ncc3Cl)c(F)cc21 [Example 20r],6.53
2,Cn1c(=O)n(CCC(C)(C)O)c2cc(Nc3nc(-n4cc(C(F)(F)F)cn4)ncc3Cl)ccc21 [Example 20s],6.26
3,Cn1c(=O)n(CCC(C)(C)O)c2cc(Nc3nc(N4CCOCC4)ncc3Cl)ccc21 [Example 20t],6.51
4,"CSc1ncc(Cl)c(Nc2ccc3c(c2)n(CCC(C)(C)O)c(=O)n3C)n1 [Example 22a, 5-((5-chloro-2-(methylthio)pyrimidin-4-yl)amino)-3-(3-hydroxy-3-methylbutyl)-1-methyl-1,3-dihydro-2H-benzo[d]imidazol-2-one]",6.19
5,"Cn1c(=O)n(CCC(C)(C)O)c2cc(Nc3cc(Br)ncc3Cl)ccc21 [Example 22b, 5-((2-bromo-5-chloropyridin-4-yl)amino)-3-(3-hydroxy-3-methylbutyl)-1-methyl-1,3-dihydro-2H-benzo[d]imidazol-2-one]",5.65
6,CCC1(Cn2c(=O)n(C)c3ccc(Nc4ccnc(Cl)c4C#N)cc32)CNC(=O)O1 (centres unmarked) [Example 22c],5.76
7,Cn1c(=O)n(CCC(C)(C)O)c2cc(Nc3ncnc(Cl)c3C#N)c(F)cc21 [Example 22d],5.45
8,CCC1(Cn2c(=O)n(C)c3ccc(Nc4ccnc(Cl)c4C#N)cc32)CN(C)C(=O)O1 (centres unmarked) [Example 22e],5.88
9,Cn1c(=O)n(CCC(C)(C)O)c2cc(Nc3ccnc(Cl)c3C#N)c(F)cc21 [Example 22f],5.75
10,"CCC(C)(O)CCn1c(=O)n(C)c2ccc(Nc3nc(Cl)ncc3Cl)cc21 (centres unmarked) [Example 22g, 5-((2,5-dichloropyrimidin-4-yl)amino)-3-(3-hydroxy-3-methylpentyl)-1-methyl-1,3-dihydro-2H-benzo[d]imidazol-2-one]",5.27
11,Cn1c(=O)n(CCC(C)(C)O)c2cc(Nc3cc(Cl)nc4ccnn34)ccc21 [Example 22h],5.47
12,Cn1c(=O)n(CCC(C)(C)O)c2cc(Nc3nc(Cl)nc(Cl)c3Cl)ccc21 [Example 22i],5.54
13,Cn1c(=O)n(CCC(C)(C)O)c2cc(Nc3ncnc(Cl)c3Cl)ccc21 [Example 22l],5.64
14,CC[C@]1(O)CCC[C@H]1Cn1c(=O)n(C)c2ccc(Nc3ccnc(Cl)c3C#N)cc21 [Example 22m],5.52
15,Cn1c(=O)n(C[C@@H]2CCC[C@]2(C)O)c2cc(Nc3ccnc(Cl)c3C#N)ccc21 [Example 22n],5.90
16,"Cn1ccc(-c2ncc(Cl)c(Nc3ccc4c(c3)n(CCC(C)(C)O)c(=O)n4C)n2)n1 [Example 23a, 5-((5-chloro-2-(1-methyl-1H-pyrazol-3-yl)pyrimidin-4-yl)amino)-3-(3-hydroxy-3-methylbutyl)-1-methyl-1,3-dihydro-2H-benzo[d]imidazol-2-one]",6.35
17,Cc1cc(-c2ncc(Cl)c(Nc3ccc4c(c3)n(CCC(C)(C)O)c(=O)n4C)n2)n(C)n1 [Example 23b],6.05
18,Cc1nc(C)c(-c2ncc(Cl)c(Nc3ccc4c(c3)n(CCC(C)(C)O)c(=O)n4C)n2)s1 [Example 23c],5.99
19,Cn1c(=O)n(CCC(C)(C)O)c2cc(Nc3nc(-c4cccs4)ncc3Cl)ccc21 [Example 23d],5.62

row,SMILES,HTRF pIC50
1,"Cn1ccnc1-c1ncc(Cl)c(Nc2ccc3c(c2)n(CCC(C)(C)O)c(=O)n3C)n1 [Example 24a, 5-((5-chloro-2-(1-methyl-1H-imidazol-2-yl)pyrimidin-4-yl)amino)-3-(3-hydroxy-3-methylbutyl)-1-methyl-1,3-dihydro-2H-benzo[d]imidazol-2-one:formic acid (1:1)]",6.33
2,"Cn1c(=O)n(CC2COCCN2CC(F)(F)F)c2cc(Nc3ccnc(Cl)c3C#N)ccc21 (centres unmarked) [Example 25a, 2-chloro-4-((1-methyl-2-oxo-3-((4-(2,2,2-trifluoroethyl)morpholin-3-yl)methyl)-2,3-dihydro-1H-benzo[d]imidazol-5-yl)amino)nicotinonitrile]",5.58
3,"CCC(Cn1c(=O)n(C)c2ccc(Nc3ccnc(Cl)c3C#N)cc21)N(C)C (centres unmarked) [Example 25b, 2-chloro-4-((3-(2-(dimethylamino)butyl)-1-methyl-2-oxo-2,3-dihydro-1H-benzo[d]imidazol-5-yl)amino)nicotinonitrile: formic acid (1:1)]",5.34
4,"CCN1CCC[C@H]1Cn1c(=O)n(C)c2ccc(Nc3ccnc(Cl)c3C#N)cc21 [Example 25c, (S)-2-chloro-4-((3-((1-ethylpyrrolidin-2-yl)methyl)-1-methyl-2-oxo-2,3-dihydro-1H-benzo[d]imidazol-5-yl)amino)nicotinonitrile]",5.34
5,"Cn1c(=O)n(CC2CCCCN2CC(F)(F)F)c2cc(Nc3ccnc(Cl)c3C#N)ccc21 (centres unmarked) [Example 25e, 2-chloro-4-((1-methyl-2-oxo-3-((1-(2,2,2-trifluoroethyl)piperidin-2-yl)methyl)-2,3-dihydro-1H-benzo[d]imidazol-5-yl)amino)nicotinonitrile]",5.37
6,"Cn1c(=O)n(C[C@@H]2CCCN2CCF)c2cc(Nc3ccnc(Cl)c3C#N)ccc21 [Example 25f, (S)-2-chloro-4-((3-((1-(2-fluoroethyl)pyrrolidin-2-yl)methyl)-1-methyl-2-oxo-2,3-dihydro-1H-benzo[d]imidazol-5-yl)amino)nicotinonitrile: formic acid (1:1)]",5.73
7,"Cn1c(=O)n(C[C@@H]2CCCN2CCO)c2cc(Nc3ccnc(Cl)c3C#N)ccc21 [Example 25g, (S)-2-chloro-4-((3-((1-(2-hydroxyethyl)pyrrolidin-2-yl)methyl)-1-methyl-2-oxo-2,3-dihydro-1H-benzo[d]imidazol-5-yl)amino)nicotinonitrile: formic acid (1:1)]",5.34
8,"Cn1c(=O)n(C[C@@H]2CCCN2CC(F)F)c2cc(Nc3ccnc(Cl)c3C#N)ccc21 [Example 25i, (S)-2-chloro-4-((3-((1-(2,2-difluoroethyl)pyrrolidin-2-yl)methyl)-1-methyl-2-oxo-2,3-dihydro-1H-benzo[d]imidazol-5-yl)amino)nicotinonitrile]",5.71
9,"CCNC(C)CCn1c(=O)n(C)c2ccc(Nc3ccnc(Cl)c3C#N)cc21.Cl (centres unmarked) [Example 26a, 2-chloro-4-((3-(3-(ethylamino)butyl)-1-methyl-2-oxo-2,3-dihydro-1H-benzo[d]imidazol-5-yl)amino)nicotinonitrile hydrochloride]",5.41
10,"C#CCC(C)(O)CCn1c(=O)n(C)c2ccc(Nc3ccnc(Cl)c3C#N)cc21 (centres unmarked) [Example 27a, 2-chloro-4-((3-(3-hydroxy-3-methylhex-5-yn-1-yl)-1-methyl-2-oxo-2,3-dihydro-1H-benzo[d]imidazol-5-yl)amino)nicotinonitrile]",5.86
11,"COCC(C)(O)CCn1c(=O)n(C)c2ccc(Nc3ccnc(Cl)c3C#N)cc21 (centres unmarked) [Example 27b, 2-chloro-4-((3-(3-hydroxy-4-methoxy-3-methylbutyl)-1-methyl-2-oxo-2,3-dihydro-1H-benzo[d]imidazol-5-yl)amino)nicotinonitrile]",6.14
12,"CCC(C)(O)CCn1c(=O)n(C)c2ccc(Nc3ccnc(Cl)c3C#N)cc21 (centres unmarked) [Example 27c, 2-chloro-4-((3-(3-hydroxy-3-methylpentyl)-1-methyl-2-oxo-2,3-dihydro-1H-benzo[d]imidazol-5-yl)amino)nicotinonitrile]",5.93
13,"Cn1c(=O)n(CCC(C)(O)C(F)(F)F)c2cc(Nc3ccnc(Cl)c3C#N)ccc21 (centres unmarked) [Example 27d, 2-chloro-4-((1-methyl-2-oxo-3-(4,4,4-trifluoro-3-hydroxy-3-methylbutyl)-2,3-dihydro-1H-benzo[d]imidazol-5-yl)amino)nicotinonitrile]",5.70
14,"CC(Cn1c(=O)n(C)c2ccc(Nc3ccnc(Cl)c3C#N)cc21)C(C)(C)O (centres unmarked) [Example 27e, 2-chloro-4-((3-(3-hydroxy-2,3-dimethylbutyl)-1-methyl-2-oxo-2,3-dihydro-1H-benzo[d]imidazol-5-yl)amino)nicotinonitrile]",5.55
15,"CC(C)C(C)(O)CCn1c(=O)n(C)c2ccc(Nc3ccnc(Cl)c3C#N)cc21 (centres unmarked) [Example 27f, 2-chloro-4-((3-(3-hydroxy-3,4-dimethylpentyl)-1-methyl-2-oxo-2,3-dihydro-1H-benzo[d]imidazol-5-yl)amino)nicotinonitrile]",5.40
16,"Cn1c(=O)n(CCC(C)(C)O)c2cc(Nc3ccnc(F)c3Cl)ccc21 [Example 29a, 5-((3-chloro-2-fluoropyridin-4-yl)amino)-3-(3-hydroxy-3-methylbutyl)-1-methyl-1,3-dihydro-2H-benzo[d]imidazol-2-one]",6.21
17,"Cn1c(=O)n(CCC(C)(C)O)c2cc(Nc3ccnc(Cl)c3Cl)ccc21 [Example 29b, 5-((2,3-dichloropyridin-4-yl)amino)-3-(3-hydroxy-3-methylbutyl)-1-methyl-1,3-dihydro-2H-benzo[d]imidazol-2-one]",5.88
18,"Cn1c(=O)n(CCC(C)(C)O)c2cc(Nc3ccncc3Br)ccc21 [Example 29c, 5-((3-bromopyridin-4-yl)amino)-3-(3-hydroxy-3-methylbutyl)-1-methyl-1,3-dihydro-2H-benzo[d]imidazol-2-one]",5.38
19,"Cn1c(=O)n(CCC(C)(C)O)c2cc(Nc3cc(C(F)(F)F)ncc3Cl)ccc21 [Example 29d, 5-((5-chloro-2-(trifluoromethyl)pyridin-4-yl)amino)-3-(3-hydroxy-3-methylbutyl)-1-methyl-1,3-dihydro-2H-benzo[d]imidazol-2-one]",5.48
